In one data set the target is D(2) dopamine receptor (Homo sapiens, UniProt P14416).
Data set [1] can be described thus: Drug metabolism in human hepatocyte microsome fraction assessed as GSH conjugate formation by LC-MS/MS analysis. The class given is ADME. Particulars: microsomes.
For data set [2], the target named is T1, D(1A) dopamine receptor (Homo sapiens, UniProt P21728). Description: Binding affinity to human dopamine D1 receptor.
Data set [3] addresses Voltage-gated inwardly rectifying potassium channel KCNH2 (Homo sapiens, UniProt Q12809). Description: Inhibition of human ERG.
The target in data set [4] is 5-hydroxytryptamine receptor 2A (Homo sapiens, UniProt P28223). Description: Binding affinity to human 5HT2A receptor.
Sequence of 5-hydroxytryptamine receptor 2A (P28223 whole entry): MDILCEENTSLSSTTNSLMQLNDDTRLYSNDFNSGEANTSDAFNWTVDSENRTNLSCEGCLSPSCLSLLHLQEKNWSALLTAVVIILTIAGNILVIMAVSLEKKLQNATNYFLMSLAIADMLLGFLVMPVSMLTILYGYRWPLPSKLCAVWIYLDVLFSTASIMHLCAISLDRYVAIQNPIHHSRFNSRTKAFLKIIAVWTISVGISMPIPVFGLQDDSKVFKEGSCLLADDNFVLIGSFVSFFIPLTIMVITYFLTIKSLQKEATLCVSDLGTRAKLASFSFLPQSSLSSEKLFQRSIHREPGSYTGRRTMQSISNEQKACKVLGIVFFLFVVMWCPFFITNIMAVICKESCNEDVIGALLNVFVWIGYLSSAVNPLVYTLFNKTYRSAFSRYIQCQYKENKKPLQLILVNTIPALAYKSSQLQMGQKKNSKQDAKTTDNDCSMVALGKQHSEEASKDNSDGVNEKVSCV
The nature of data set [5]: In vivo receptor occupancy at dopamine D1 receptor in sc dosed rat brain by measuring free plasma concentration pretreated for 1 hr in presence of raclopride by LC-MS/MS analysis. The class given is functional.
The target of data set [6] is T1, D(1A) dopamine receptor. Description: Potency index, ratio of Clozapine Ki to compound Ki for binding affinity to human dopamine D1 receptor.
The nature of data set [7]: In vivo receptor occupancy at dopamine D1 receptor in sc dosed rat brain by measuring free plasma concentration pretreated for 1 hr in presence of SCH-23390 by LC-MS/MS analysis. The class given is functional.
A short description of data set [8]: In vivo receptor occupancy at human dopamine D1 receptor in schizophrenia patient brain at 10 mCi, iv by PET scanning. The class given is functional.
Data set [9] can be described thus: In vivo receptor occupancy at human dopamine D2 receptor in schizophrenia patient brain at 10 mCi, iv by PET scanning. The class given is functional.

Some results are limits rather than exact numbers.

Sequence of D(2) dopamine receptor (P14416 whole entry): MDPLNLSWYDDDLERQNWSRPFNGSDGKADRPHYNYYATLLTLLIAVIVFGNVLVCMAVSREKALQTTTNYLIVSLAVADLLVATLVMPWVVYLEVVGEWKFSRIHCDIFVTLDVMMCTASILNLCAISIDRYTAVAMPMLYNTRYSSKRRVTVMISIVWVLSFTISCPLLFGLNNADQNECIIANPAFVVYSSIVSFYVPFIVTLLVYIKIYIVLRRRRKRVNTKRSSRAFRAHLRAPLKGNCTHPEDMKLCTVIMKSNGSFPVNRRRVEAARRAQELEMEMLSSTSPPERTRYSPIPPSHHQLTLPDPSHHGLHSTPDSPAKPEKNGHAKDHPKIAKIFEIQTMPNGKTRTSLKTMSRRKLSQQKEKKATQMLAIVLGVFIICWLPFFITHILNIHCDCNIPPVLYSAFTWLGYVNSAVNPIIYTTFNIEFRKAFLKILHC
Sequence of Voltage-gated inwardly rectifying potassium channel KCNH2 (Q12809 whole entry): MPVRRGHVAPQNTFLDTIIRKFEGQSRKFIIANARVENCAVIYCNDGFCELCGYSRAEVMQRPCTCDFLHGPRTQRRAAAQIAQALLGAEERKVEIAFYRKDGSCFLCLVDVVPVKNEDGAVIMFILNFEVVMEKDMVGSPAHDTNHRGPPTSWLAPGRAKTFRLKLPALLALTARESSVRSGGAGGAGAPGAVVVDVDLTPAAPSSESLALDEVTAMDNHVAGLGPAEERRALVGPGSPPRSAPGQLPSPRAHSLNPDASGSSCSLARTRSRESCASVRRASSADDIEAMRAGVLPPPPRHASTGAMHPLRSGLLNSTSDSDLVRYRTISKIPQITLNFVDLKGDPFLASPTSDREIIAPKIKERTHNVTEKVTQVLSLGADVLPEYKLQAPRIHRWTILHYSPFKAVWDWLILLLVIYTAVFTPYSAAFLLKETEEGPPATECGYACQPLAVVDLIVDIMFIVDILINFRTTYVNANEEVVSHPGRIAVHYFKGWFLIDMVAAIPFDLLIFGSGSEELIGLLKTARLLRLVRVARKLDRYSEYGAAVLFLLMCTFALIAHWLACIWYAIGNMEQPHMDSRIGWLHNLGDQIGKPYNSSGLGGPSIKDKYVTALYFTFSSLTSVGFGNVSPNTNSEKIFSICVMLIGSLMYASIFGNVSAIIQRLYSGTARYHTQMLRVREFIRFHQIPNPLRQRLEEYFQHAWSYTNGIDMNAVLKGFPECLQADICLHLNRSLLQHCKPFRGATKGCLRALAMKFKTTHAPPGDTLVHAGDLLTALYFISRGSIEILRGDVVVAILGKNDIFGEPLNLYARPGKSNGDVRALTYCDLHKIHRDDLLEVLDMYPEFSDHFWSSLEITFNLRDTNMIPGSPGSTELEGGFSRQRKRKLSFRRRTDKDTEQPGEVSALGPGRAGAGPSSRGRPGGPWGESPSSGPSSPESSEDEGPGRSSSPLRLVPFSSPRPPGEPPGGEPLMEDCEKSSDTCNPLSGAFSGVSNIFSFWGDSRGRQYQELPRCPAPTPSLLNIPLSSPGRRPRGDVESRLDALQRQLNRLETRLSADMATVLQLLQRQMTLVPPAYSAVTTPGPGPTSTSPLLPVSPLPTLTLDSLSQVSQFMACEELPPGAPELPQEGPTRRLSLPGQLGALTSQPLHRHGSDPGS
T1 sequence (P21728 whole entry): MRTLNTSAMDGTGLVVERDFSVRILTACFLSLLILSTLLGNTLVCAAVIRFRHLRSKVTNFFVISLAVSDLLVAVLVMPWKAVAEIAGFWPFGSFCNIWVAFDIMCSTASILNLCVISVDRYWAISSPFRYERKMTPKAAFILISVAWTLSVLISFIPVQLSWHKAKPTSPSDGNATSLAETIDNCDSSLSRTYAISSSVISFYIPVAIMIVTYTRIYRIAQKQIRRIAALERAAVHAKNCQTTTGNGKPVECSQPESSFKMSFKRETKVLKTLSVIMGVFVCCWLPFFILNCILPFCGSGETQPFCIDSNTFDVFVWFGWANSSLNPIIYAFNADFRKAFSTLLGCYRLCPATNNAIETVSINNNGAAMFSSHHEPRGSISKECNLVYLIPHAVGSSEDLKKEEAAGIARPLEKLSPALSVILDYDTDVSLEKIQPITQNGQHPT
Description for D(2) dopamine receptor: Binding affinity to human dopamine D2 receptor

`Cc1ccc2c(c1)N=C(C1=C[C@H](C)N(C)CC1)c1cc(Cl)ccc1N2`: the Ki on D(2) dopamine receptor was found to be 98 nM; at D(1A) dopamine receptor [2], 0.48 nM. In addition, the Drug metabolism in data set [1] stood at 0.38 µmol/L. In data set [3], this compound registered an IC50 of 1100 nM.
Turning to `C[C@H]1C=C(C2=Nc3cc(Cl)ccc3Nc3ccccc32)CCN1C`, the values for the Ki at D(2) dopamine receptor and on D(1A) dopamine receptor [2] were 479 nM and 51 nM, respectively. For the same compound, in data set [1], the Drug metabolism was 1.3 µmol/L.
For `CN1CC=C(C2=Nc3cc(Cl)ccc3Nc3ccccc32)CC1` the same measures were 1380 nM, 380 nM and 0.21 µmol/L.
For `CCc1ccc2c(c1)C(C1=C[C@H](C)N(C)CC1)=Nc1ccccc1N2`, the Ki on D(2) dopamine receptor turned out to be 167 nM; at D(1A) dopamine receptor [2] it was 4 nM. Also, the Drug metabolism in data set [1] is 0.86 µmol/L. This compound also displayed an IC50 in [3] of 600 nM.
For `C[C@H]1C=C(C2=Nc3ccccc3Nc3ccc(Cl)cc32)CCN1C` the same measures were 124 nM, 1.6 nM, 0.67 µmol/L and 600 nM.
As to `C[C@@H]1C=C(C2=Nc3cc(Cl)ccc3Nc3ccccc32)CCN1C`, the Ki at D(2) dopamine receptor is more than 1400 nM; at D(1A) dopamine receptor [2] it was 780 nM. The Drug metabolism in data set [1] was 0.84 µmol/L.
Regarding `C[C@H]1C=C(C2=Nc3cc(Cl)ccc3Nc3ccc(Cl)cc32)CCN1C`, the Ki on D(2) dopamine receptor was determined as 106 nM; at D(1A) dopamine receptor [2], 0.9 nM. The Drug metabolism in data set [1] turned out to be 0.72 µmol/L. The compound also came in with an IC50 in [3] of 900 nM.
With `Cc1ccc2c(c1)C(C1=C[C@H](C)N(C)CC1)=Nc1cc(Cl)ccc1N2`, the Ki on D(2) dopamine receptor was 63 nM; in [4], 0.094 nM; at D(1A) dopamine receptor [2], 2.3 nM. Further, the Drug metabolism in [1] amounted to 0.35 µmol/L.
`Cc1ccc2c(c1)N=C(C1=C[C@H](C)N(C)CC1)c1cc(F)ccc1N2`: the values for the Ki at D(2) dopamine receptor and on D(1A) dopamine receptor [2] were 453 nM and 5.5 nM, respectively. Moreover, the Drug metabolism in [1] was 0.25 µmol/L. Besides, inhibition in [3] was half-maximal at 1600 nM (IC50).
Take `COc1ccc2c(c1)C(C1=C[C@H](C)N(C)CC1)=Nc1cc(C)ccc1N2`: the Ki on D(2) dopamine receptor was more than 1400 nM.
In the case of `CCc1ccc2c(c1)C(C1=C[C@H](C)N(C)CC1)=Nc1cc(Cl)ccc1N2`, the values for the Ki (at D(2) dopamine receptor; in data set [4]; on D(1A) dopamine receptor [2]) were 28 nM, 0.094 nM and 1.4 nM, respectively. Also, the Occ50 in data set [5] turned out to be 6 nM; in data set [7] it was 1 nM. Moreover, the Drug metabolism in data set [1] is 0.53 µmol/L. Further, the Ratio at D(1A) dopamine receptor [6] was 10. Besides, 1100 nM corresponded to half-maximal inhibition in [3] (IC50).
With `OCCOCCN1CCN(C2=Nc3ccccc3Sc3ccccc32)CC1` [QUETIAPINE], the Occ is 12% in data set [8] and 30% in [9].
On to `COc1ccc2c(c1)C(C1=C[C@H](C)N(C)CC1)=Nc1cc(Cl)ccc1N2`, for which the Ki at D(2) dopamine receptor worked out at 69 nM; at D(1A) dopamine receptor [2] it was 2 nM. Moreover, the Drug metabolism in data set [1] came to 0.89 µmol/L. In addition, the IC50 in [3] was 1500 nM.
`Cc1ccc2c(c1)N=C(C1=C[C@H](C)N(C)CC1)c1ccccc1N2` showed a Ki at D(2) dopamine receptor of more than 1400 nM.
`C[C@H]1C=C(C2=Nc3cc(Cl)ccc3Nc3ccc(OC(F)(F)F)cc32)CCN1C`: the values for the inhibition constant (Ki) (at D(2) dopamine receptor; in data set [4]; on D(1A) dopamine receptor [2]) were 110 nM, 0.14 nM and 2 nM, respectively. Further, the Drug metabolism in data set [1] is 0.58 µmol/L. In data set [3], this compound came in with an IC50 of 1900 nM.
Turning to `CN1CCC(C2=Nc3cc(Cl)ccc3Nc3ccccc32)=CC1(C)C`, the Ki worked out at 1180 nM on D(2) dopamine receptor and 55 nM on D(1A) dopamine receptor [2]. For the same compound, the Drug metabolism in data set [1] amounted to 0.99 µmol/L.
For the compound `Cc1ccc2c(c1)N=C(C1=C[C@H](C)N(C)CC1)c1cc(C)ccc1N2`, the Ki on D(2) dopamine receptor was more than 1400 nM.
Take `Cc1nc2n(c(=O)c1CCN1CCC(c3noc4cc(F)ccc34)CC1)CCCC2` [RISPERIDONE]: the figures for the Occ in [8] and in data set [9] were 25% and 81%, respectively.
As for `CN1CCN([C@@H]2C[C@@H](c3ccccc3)c3ccc(Cl)cc32)CC1(C)C` [ZICRONAPINE], the figures for the Occ50 in [5] and in data set [7] were 6.6 nM and 23 nM, respectively. Moreover, the Drug metabolism in data set [1] is 0 µmol/L.
`Cc1cc2c(s1)Nc1ccccc1N=C2N1CCN(C)CC1` [OLANZAPINE]: the Occ in [8] is reported as 43%; in [9], 79%. For the same compound, the figures for the Occ50 in [5] and in [7] were 480 nM and 3.8 nM, respectively. In addition, the Drug metabolism in data set [1] is 0.077 µmol/L.
Take `Cc1ccc2c(c1)N=C(C1=C[C@H](C)N(C)CC1)c1cc(OC(F)(F)F)ccc1N2`: the Ki came to 1220 nM on D(2) dopamine receptor and 2.4 nM on D(1A) dopamine receptor [2].
Regarding `C[C@H]1C=C(C2=Nc3cc(Cl)ccc3Nc3ccc(C#N)cc32)CCN1C`, the Ki at D(2) dopamine receptor was found to be 135 nM; on D(1A) dopamine receptor [2] it was 1.1 nM. For the same compound, the Drug metabolism in data set [1] was 0.49 µmol/L. The IC50 in data set [3] was 600 nM.
Take `CN1CCN(C2=Nc3cc(Cl)ccc3Nc3ccccc32)CC1` [CLOZAPINE]: the Occ amounted to 55% in data set [8] and 61% in data set [9]. For the same compound, the Occ50 in [5] amounted to 73.4 nM; in [7] it was 24.2 nM.
In the case of `C[C@H]1C=C(C2=Nc3cc(Cl)ccc3Nc3ccc(F)cc32)CCN1C`, the Ki on D(2) dopamine receptor is 127 nM; on D(1A) dopamine receptor [2] it was 0.2 nM. The Drug metabolism in [1] stood at 0.24 µmol/L. In data set [3], this compound came in with an IC50 of 1200 nM.
Consider `Cc1ccc2c(c1)C(C1=C[C@H](C)N(C)CC1)=Nc1ccccc1N2`, for which the Ki at D(2) dopamine receptor was determined as 819 nM; at D(1A) dopamine receptor [2], 7.9 nM. Besides, the Drug metabolism in [1] turned out to be 0.85 µmol/L.
As for `CCOc1ccc2c(c1)C(C1=C[C@H](C)N(C)CC1)=Nc1cc(Cl)ccc1N2`, the figures for the Ki (on D(2) dopamine receptor; in data set [4]; at D(1A) dopamine receptor [2]) were 47 nM, 0.091 nM and 3.7 nM, respectively. Besides, in data set [1], the Drug metabolism was 0.77 µmol/L. Also, on D(1A) dopamine receptor [6], the Ratio is 10. The compound also showed a half-inhibitory concentration (IC50) in data set [3] of 900 nM.

For the origin of these results see ChEMBL document CHEMBL4665835, “Synthesis and pharmacological evaluation of 11-(1,6-dimethyl-1,2,3,6-tetrahydropyridin-4-yl)-5H-dibenzo[b,e][1,4]diazepines with clozapine-like receptor occupancy at dopamine D/D receptor” (Bioorg Med Chem Lett, 2020).
